In patent publication US10980830B2, “Systems and methods for treating skin conditions with magnesium ion compositions” (priority 2017, dated 2021):
Where two headings read alike, the source gives them in different places.

Columns and labels:
plaque psoriasis [1] = test system: plaque psoriasis
Text: In another example, a person with plaque psoriasis on the extensor surface of their right knee for over 15 years was started on magnesium treatment. Prior treatment with topical hydrocortisone was stopped two weeks prior. Applications using Johnson+Johnson Large Sterile Waterproof Pads with QUILTVENT™ Technology. 1.8 cc solution of 20% magnesium sulfate solution (APP Fresenius Kabi Lake Zurich, Ill. NDC63323-064-10, 50% solution diluted with sterile water) was applied every third day for eight hour durations. […] After the 10 applications of the 20% magnesium sulfate solution, the strength of the solution was increased to 40% for the next ten applications and to 50% for the following 10 applications.
A trial using a 50% solution of magnesium chloride was made by dissolving the magnesium flakes with distilled water (Hinkley Springs) and applied to the Johnson+Johnson Large Sterile Waterproof Pads with QUILTVENT™. Applications were initially for eight hours every third day. […] Following the twentieth application the applications were increased to twelve hour duration with frequency increased to every other day. […] Applications were stopped to determine if total remission been achieved. […] Treatment was continued for three additional treatments.

adhesive capsulitis [2] = conditions: for pain with active range of motion of the shoulder: after 16 hours of continued use
Method: A second attempt using transdermal magnesium treatment to affect the pain and inflammation associated with adhesive capsulitis was performed. A 1.3 cc of 50% magnesium sulfate solution (APP Fresenius Kabi Lake Zurich, Ill. NDC63323-064-10) was placed on the positive dispersal pad in an iontophoresis device (iontoPatch 80 manufactured by Travini Medical). The NaCl solution supplied with the device was placed on the negative patch. The positive patch was placed over the tender area on the lateral shoulder and kept in place for 10 hours. It was applied at 8:00 pm and removed the next morning before showering at 6:00 am. […] After showering a second replacement patch prepared in the same manner was placed at 6:15 am, 15 minutes after the first iontoPatch was removed.
The positive side of the patch now placed over a tender area on the anterior shoulder. The second patch application was kept in place for a total of 13.5 hours.

[3] = test system: recurrent plaque psoriasis
adhesive capsulitis [4] = conditions: 1.8 cc of 58% wt/vol on waterproof pad, normal skin, kept in place 24 hours
Text: The same Johnson+Johnson waterproof pad was applied to normal skin over my right shoulder affected with an exacerbation of adhesive capsulitis.

[5] = test system: sacroiliac (SI) joints pain and stiffness
Text: In another example, a trial of transdermal magnesium ions delivered via iontophoresis in an effort to relieve pain, tenderness, and stiffness localized to sacroiliac (SI) joints. A patient with symptoms including exacerbation of chronic low back pain associated with pain, stiffness, and tenderness of both sacroiliac joints with pain radiating to the right iliac crest over a five week period. Symptoms were moderate to severe enough to make standing erect difficult at times and walking was slow and deliberate.
An iontophoresis pad with 120 mg of magnesium chloride diluted in 4 cc of distilled water was placed over the right sacroiliac joint for 80 minutes for delivery of 40 mA minutes with a delivery setting of 0.5 mA/minute at 8:00 pm.
A second identical dose was delivered with the same iontophoresis electrodes in place. […] Ten minutes following delivery of the first dose to the […] SI joint a second identical iontophoresis dose was delivered with the same electrodes in place.

[6] = test system: pain and stiffness of the lower back
Method: In an effort to determine if passive diffusion of magnesium ions applied over a larger surface area under a hydrocolloid dressing could affect the pain and stiffness of the lower back approximately 0.8 mL of 50% magnesium chloride solution was sprayed on a 4″×4″ hydrocolloid patch (DuoDERM™ Extra Thin CGF Dressing, by ConvaTec) and the moist patch was placed over the lumbar spine where the pain was now localized. This was kept in place during an 8 hour period. […] A third application of a pre-moistened Duoderm dressing, this time with approximately 0.5 mL of 40% magnesium chloride solution, sprayed onto the surface prior to application to the lumbar spine area and worn for 48 hours continuously.

chronic lower back pain = test system: chronic lower back pain
Text: In an effort to determine a threshold for therapeutic response the patient was started on gradually increasing concentrations of magnesium chloride placed on a 4 in.×4 in. hydrocolloid dressing (DupDERM™ Extra Thin CGF, by Convatec). Dosages were always approximately 1 cc sprayed onto surface of the dressing using a 20% solution of Magnesium Chloride (Mylan, NDC 674-134-50) diluted to strengths of 2%, 5%, 10% 15%, and undiluted 20%. Sterile water was used as the diluent (Hospira NDC 0409-4887-17). Dressings were kept in place for 8 hours. This method of application continued with daily graduation in the strength of solution applied. […] Using the same method of application, the dosages were increased to 30%, 40% and 50% solutions now made with magnesium flakes dissolved in distilled water.

plaque psoriasis [7] = test system: plaque psoriasis; remark: listed apart in the source
Text: Johnson+Johnson Large Sterile Waterproof Pads with QUILTVENT™ Technology were obtained. These are similar to large waterproof bandaids measuring 2.875 inches×4 inches with a central pad that measured 1.85 inches×3 inches.

[8] = 1.8 cc of 20% solution, 8 h every third day, following 7 applications
[9] = after increasing strength to 40% and 50% (10 applications each)
[10] = 50% solution, after 15 applications
[11] = 50% solution, after 20 applications plus ten 12 h applications every other day
[12] = 50% solution, two weeks after applications were stopped

## O=S(=O)([O-])[O-].[Mg+2] [magnesium sulfate]
Plaque psoriasis [1]; [8]
  itching: almost total relief
  reduction in scaling: 50%
Plaque psoriasis [1]; 20%, then 40% and 50% solution
  course of improvement: plateaued following the first 10-12 applications
Plaque psoriasis [1]; [9]
  scaling between applications: persistent scaling
  thickness of persisting dermal hypertrophy: approximately 3 mm
Adhesive capsulitis [2]; 1.3 cc of 50% solution, iontophoresis, after 10 hours
  improvement in pain with active range of motion of the shoulder: 40%
Adhesive capsulitis [2]; 50% solution, iontophoresis, after 16 hours
  active range of motion, affected right versus unaffected left shoulder: no difference
Adhesive capsulitis [2]; 50% solution, iontophoresis
  pain with active range of motion of the shoulder: no pain
Adhesive capsulitis [2]; 50% solution, iontophoresis, listed as magnesium
  pain with active range of motion of the shoulder: complete relief
Adhesive capsulitis [2]; 50% solution, iontophoresis, patches worn for a total of 12 hours
  reduction in pain with active range of motion of the shoulder: 80%
Adhesive capsulitis [2]; after two iontophoresis patches with 50% solution
  duration of the beneficial effect: no further treatment was required over the next 10 months
[3]; 1 cc of 1% solution intra-dermal once daily for four days, not covered, day 14 following the injections
  resolution of scaliness and erythema: 80%
[3]; 1 cc of 1% solution intra-dermal once daily for four days, not covered, over the next few days
  inflammatory process and erythema: reduction
[3]; after 1% injections plus iontophoresis of 1.5 cc 50% solution on days 16 and 18, by day 28
  remission status of the recurrent 1 cm plaque: complete remission
[3]; intra-dermal injections of 1% solution
  effect on a small area of recurrent plaque psoriasis: effective

## [Cl-].[Cl-].[Mg+2] [magnesium chloride]
Plaque psoriasis [1]; 50% solution, 8 h every third day, within days of starting
  fine scaliness and inflammation, early response: immediate improvement
Plaque psoriasis [1]; [10]
  dermal hypertrophy: improvement
  fine scales: elimination
  improvement in inflammation: 90-95%
Plaque psoriasis [1]; [11]
  dermal hypertrophy: resolved
  fine scaliness: resolved
Plaque psoriasis [1]; [12]
  finding under double polarized light head set apparatus: small erythematous islands were visualized
  skin appearance: appeared normal
Adhesive capsulitis [4]
  pain associated with adhesive capsulitis: no improvement
[5]; 120 mg in 4 cc water, iontophoresis 40 mA minutes, five hours after the first dose
  improvement in pain and stiffness of the right SI joint: approximately 50%
[5]; after two iontophoresis doses on each SI joint
  duration of the improvement: lasted throughout the next day
[5]; two iontophoresis doses of 120 mg in 4 cc, five hours after completion
  improvement in pain and stiffness of the right SI joint: 80%
[5]; two iontophoresis doses of 120 mg in 4 cc, two hours after treatments ended
  reduction in pain and stiffness of the left SI joint: ~90%
[6]; 50% solution on hydrocolloid dressing for a total of 9.5 hours
  pain and stiffness in the lower back: complete relief
[6]; 50% solution on hydrocolloid patch, after removal of the first patch
  skin at the application area after the first patch: slightly hyperemic
[6]; 50% solution on hydrocolloid patch, second application to the same area
  sensation on application of the second patch: transient burning sensation
[6]; about 0.8 mL of 50% solution on 4x4 in. hydrocolloid patch, 8 hour period
  improvement in pain and stiffness of the lower back: 80%
[6]; after 9.5 hours of 50% solution on hydrocolloid dressing
  duration of complete relief: 48 h
[6]; on the third day after the 50% solution patches
  severity of recurring discomfort and stiffness relative to the original pain and stiffness: 20%
[6]; third dressing, about 0.5 mL of 40% solution, after eight hours
  discomfort and stiffness of the lower back: Resolution
Chronic lower back pain; 30%, 40% and 50% solutions on hydrocolloid dressing, 8 hours
  improvement in pain and stiffness: incremental therapeutic benefit
Chronic lower back pain; 50% solution on hydrocolloid dressing, after the 8 hour application
  greatest benefit estimated by the patient: over 70%
Chronic lower back pain; about 1 cc of 2% or 5% solution on hydrocolloid dressing, 8 hours
  improvement in pain or stiffness: no therapeutic improvement
Chronic lower back pain; about 1 cc of 10% solution on hydrocolloid dressing, after 8 hours
  improvement in pain and stiffness: 10-20%
Chronic lower back pain; about 1 cc of 15% and 20% solution on hydrocolloid dressing, 8 hours
  improvement in pain and stiffness, estimate of the patient: 20-40%
Plaque psoriasis [7]; 58% wt/vol solution kept in place for 24 hour periods, resolved with days
  skin finding over the previous psoriasis plaque: small 2-4 mm painless flat scabs developed
Plaque psoriasis [7]; 58% wt/vol solution on occlusive dressing, following the first application
  time until erythema and scales of the plaque started to improve: ≤ 24 h
Plaque psoriasis [7]; 58% wt/vol solution, twelve applications, by the start of week four
  remission status of the psoriasis plaque: complete remission
Plaque psoriasis [7]; after pads, prophylactic daily 50% wt/vol spray into the fourth month
  duration of complete remission of the psoriatic lesion: continued into the twelfth month
